Experimental data from the supplement of paper PMC4932681.
Counter-ions that a name gives are not always drawn.

Legend:
Experiment in all cases: viability inhibition at highest dose (% inhibition); higher = more growth inhibition
BT-474 Tam1 = conditions: 4-OH-tamoxifen in medium 1 µM; 72 h
Protocol: (§1)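 Percent inhibition of viability (CellTiter-Glo, 72 h) at the highest tested concentration (D5), normalised to DMSO (0%) and 100 µM benzethonium chloride (100%). Resistant lines and the 'in 1µM tamoxifen' arms were tested in 1 µM 4-OH-tamoxifen.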

BT-474 Tam2 = conditions: 4-OH-tamoxifen in medium 1 µM; 72 h
Protocol: as §1

BT-474 = conditions: 72 h
Protocol: as §1

MCF-7 Tam1 = conditions: 4-OH-tamoxifen in medium 1 µM; 72 h
Protocol: as §1

MCF-7 = conditions: 72 h
Protocol: as §1

T-47D Tam1 = conditions: 4-OH-tamoxifen in medium 1 µM; 72 h
Protocol: as §1

T-47D Tam2 = conditions: 4-OH-tamoxifen in medium 1 µM; 72 h
Protocol: as §1

T-47D = conditions: 72 h
Protocol: as §1

ZR-75-1 Tam1 = conditions: 4-OH-tamoxifen in medium 1 µM; 72 h
Protocol: as §1

ZR-75-1 Tam2 = conditions: 4-OH-tamoxifen in medium 1 µM; 72 h
Protocol: as §1

ZR-75-1 = conditions: 72 h
Protocol: as §1

Structure (SMILES)	viability inhibition at highest dose (BT-474 Tam1)	viability inhibition at highest dose (BT-474 Tam2)	viability inhibition at highest dose (BT-474; 4-OH-tamoxifen in medium 0 µM)	viability inhibition at highest dose (BT-474; 4-OH-tamoxifen in medium 1 µM)	viability inhibition at highest dose (MCF-7 Tam1)	viability inhibition at highest dose (MCF-7; 4-OH-tamoxifen in medium 0 µM)	viability inhibition at highest dose (MCF-7; 4-OH-tamoxifen in medium 1 µM)	viability inhibition at highest dose (T-47D Tam1)	viability inhibition at highest dose (T-47D Tam2)	viability inhibition at highest dose (T-47D; 4-OH-tamoxifen in medium 0 µM)	viability inhibition at highest dose (T-47D; 4-OH-tamoxifen in medium 1 µM)	viability inhibition at highest dose (ZR-75-1 Tam1)	viability inhibition at highest dose (ZR-75-1 Tam2)	viability inhibition at highest dose (ZR-75-1; 4-OH-tamoxifen in medium 0 µM)	viability inhibition at highest dose (ZR-75-1; 4-OH-tamoxifen in medium 1 µM)
OC[C@H]1O[C@@H](n2cnc3c2N=CNC[C@H]3O)C[C@@H]1O [Pentostatin] (drug 10000 nM)	30.3	16	15.9	13.3	19.7	47.4	30.7	48	35.5	45.1	28.1	46.9	40.8	48.5	41.3
COc1cc(CCc2cc(NC(=O)c3ccc(N4CC(C)NC(C)C4)cc3)n[nH]2)cc(OC)c1 (stereo not given) [AZD4547] (drug 1000 nM)	8.22	-5.95	-7.84	5.15	-1.84	-4.05	2.4	-9.97	-1.01	-22.2	8.39	1.86	-8.6	-14.5	-5.83
Nc1ncn([C@H]2C[C@H](O)[C@@H](CO)O2)c(=O)n1 [Decitabine (Dacogen)] (drug 10000 nM)	-15.7	-4.48	-1.68	-2.07	-12.3	17.6	2.36	-9.55	-3.18	-15	-11.2	-4.61	-2.91	-8.36	-6.99
O=C1NC(=O)[C@@H](c2cn3c4c(cccc24)CCC3)[C@@H]1c1c[nH]c2ccccc12 [Tivatinib (ARQ 197)] (drug 1000 nM)	16.1	10.4	34.3	43.9	-6.15	27.5	18.4	26.7	27.8	43.2	7.95	5.46	8.59	19.6	10.3
CN[C@@H]1C[C@H]2O[C@@](C)([C@@H]1OC)n1c3ccccc3c3c4c(c5c6ccccc6n2c5c31)C(=O)N[C@H]4O [UCN-01] (drug 10000 nM)	96	96.9	74.7	90.7	96	90.3	97.1	78	70.5	67.6	69.8	66.1	73.2	61.4	61.5
Nc1nc2[nH]cnc2c(=S)[nH]1 [Thioguanine] (drug 10000 nM)	28.5	24	11.1	20.1	28.6	55.7	46.2	50.6	41.7	36.5	23.8	37.8	32.6	43.6	32.5
COc1nc(N)nc2c1ncn2[C@@H]1O[C@H](CO)[C@@H](O)[C@@H]1O [Nelarabine] (drug 10000 nM)	0.136	-6.72	-2.92	16.3	4.67	13.2	-6.84	-2.1	-4.97	1.79	6.8	1.44	2.19	11.1	4.17
NCC(=O)CCC(=O)O [Aminolevulinic acid] (drug 10000 nM)	4.33	-2.75	-15.6	-12.3	-9.27	-30.6	7.57	-0.747	5.5	-13.1	-10.6	-7.01	-5.25	-15.3	-7.45
CCC1(c2ccc(N)cc2)CCC(=O)NC1=O (stereo not given) [Aminoglutethimide] (drug 10000 nM)	12.8	-1.52	-3.67	20	6.51	-3.88	8.64	4.05	4.12	-3.76	5.9	9.59	8.94	6.41	10.3
C[C@@H](Oc1cc(-c2cnn(C3CCNCC3)c2)cnc1N)c1c(Cl)ccc(F)c1Cl [Crizotinib] (drug 1000 nM)	4.07	7.24	-4.38	-15.8	-0.481	0.562	6.55	0.597	2.79	-19.1	-7.52	0.927	0.924	-7.38	-5.41
Nc1ccn([C@@H]2O[C@H](CO)[C@@H](O)[C@@H]2O)c(=O)n1 [Cytarabine] (drug 10000 nM)	22.1	1.43	-5.7	11	6.46	29.1	12	30.6	-16.3	36.9	6.47	28.3	27.4	39.3	13
Cn1c(=O)c(F)c(Nc2ccc(I)cc2F)c2c(=O)n(C[C@@H](O)CO)cnc21 [TAK-733] (drug 1000 nM)	7.81	14.3	3.01	18.7	13.8	16.8	22.9	25.4	16.5	-7.47	-14.5	0.97	-5.15	-7.07	-1.35
Cn1c(CCCC(=O)O)nc2cc(N(CCCl)CCCl)ccc21 [Bendamustine (hydrochloride hydrate)] (drug 10000 nM)	-12.7	-4.38	-0.115	-10.7	-4.92	17.8	-4.09	0.785	-2.82	-0.126	-12.1	-0.263	5.86	-7.06	-2.1
c1cc(CN2CCCNCCNCCCNCC2)ccc1CN1CCCNCCNCCCNCC1 [Plerixafor] (drug 2500 nM)	3.09	1.19	4.13	-27.6	-8.37	-2.68	1.01	2.69	1.1	-9.65	-11.9	1.99	4.58	-5.05	1.12
Cn1cc(C2=C(c3cn(C4CCN(Cc5ccccn5)CC4)c4ccccc34)C(=O)NC2=O)c2ccccc21 [Enzastaurin] (drug 10000 nM)	-11.4	-1.15	-3.38	-20.9	-11.6	-11	-13.8	-9.95	-0.917	-15.8	-13.2	1.19	-0.91	-10.7	-19.1
CCN1CCN(c2ccc(Nc3cc(N(C)C(=O)Nc4c(Cl)c(OC)cc(OC)c4Cl)ncn3)cc2)CC1 [NVP-BGJ398] (drug 1000 nM)	14.4	5.89	-15.6	1.03	0.341	-15.8	2.98	5.28	-8.43	-9.62	3.56	-4.94	-4.28	-1.6	-10.3
Cc1c(C(=O)Nc2ccc(N3C[C@@H](C)O[C@@H](C)C3)nc2)cccc1-c1ccc(OC(F)(F)F)cc1 [Erismodegib (NVP-LDE225)] (drug 10000 nM)	15.9	19	18	41.1	15.1	23.2	14.6	4.09	19.2	19.8	8.8	13.1	7.11	-0.79	17.1
Oc1ncc(N(CCCl)CCCl)c(O)n1 [Uracil mustard] (drug 10000 nM)	6.37	6.63	-4.25	-3.71	-4.85	-11.6	11.6	-0.922	1.54	-4.46	-6.35	3.73	2.56	0.272	-3.68
CCOc1cc2ncc(C#N)c(Nc3ccc(OCc4ccccn4)c(Cl)c3)c2cc1NC(=O)/C=C/CN(C)C [Neratinib] (drug 1000 nM)	97.4	97.1	83.2	95	8.88	-5.52	24.9	32.5	32.5	19	1.93	2.29	9.49	-13	9.01
COc1cc([C@@H]2c3cc4c(cc3[C@@H](O[C@@H]3O[C@@H]5CO[C@@H](C)O[C@H]5[C@H](O)[C@H]3O)[C@H]3COC(=O)[C@H]23)OCO4)cc(OC)c1O [Etoposide] (drug 10000 nM)	14	-7.49	-4.44	27.7	-2.1	8.22	12.7	42.1	7.25	46.7	15.7	23	15.5	32.5	19.4
CC(C)Cn1cnc2c(N)nc3ccccc3c21 [Imiquimod] (drug 10000 nM)	8.22	11.8	9.75	18.4	5.29	-14.1	15.9	8.8	15.3	16.1	10.4	-4.93	-8.03	0.432	2.78
CC(O)(CS(=O)(=O)c1ccc(F)cc1)C(=O)Nc1ccc(C#N)c(C(F)(F)F)c1 (stereo not given) [Bicalutamide] (drug 10000 nM)	-10.4	-6.57	-18.1	-8.62	-6.64	-0.676	5.7	5.87	14.4	-16.4	10.8	-0.584	-0.971	-10.4	1.52
CO[C@H]1C[C@@H]2CC[C@@H](C)[C@@](O)(O2)C(=O)C(=O)N2CCCC[C@H]2C(=O)O[C@H]([C@H](C)C[C@@H]2CC[C@@H](O)[C@H](OC)C2)CC(=O)[C@H](C)/C=C(\C)[C@@H](O)[C@@H](OC)C(=O)[C@H](C)C[C@H](C)/C=C/C=C/C=C/1C [Sirolimus (Rapamycin)] (drug 1000 nM)	21.7	24.1	17.8	13.2	7.86	45.5	35.8	34.8	26.9	28.5	13.8	33.3	36.3	38.1	31
CN(C)C/C=C/C(=O)Nc1cc2c(Nc3ccc(F)c(Cl)c3)ncnc2cc1O[C@H]1CCOC1 [Afatinib (BIBW2992, Tovok)] (drug 1000 nM)	95.9	95.5	82.2	93.8	-0.193	-11.5	19	19.8	16.6	0.755	-3.23	0.501	-3.77	-5.16	1.48
CCc1cncnc1N1CCN(Cc2nc3ccc(C(F)(F)F)cc3[nH]2)CC1 (drug 10000 nM)	68.5	41.4	36	53.7	20.7	37.2	33.2	33.4	31	33	15.3	17.9	25.5	18.5	28.3
Cn1cc(C2=Nc3cc(NC(=O)C(N)C4CCCCC4)cc4c3C2=CNNC4=O)cn1 (stereo not given) (drug 10000 nM)	3.49	-6.26	3.65	-3.68	1.36	31	12.3	28.7	26.5	4.48	28.4	-5.99	-2.91	8.7	-11.4
CNC(=O)c1ccccc1Sc1ccc2c(/C=C/c3ccccn3)n[nH]c2c1 [Axitinib] (drug 10000 nM)	41.2	23.2	22	41.5	25	33	33.2	24.7	27.1	38.7	20.7	9.18	22.8	3.79	19.2
